The star is where a group is joined. Myristoyl = CCCCCCCCCCCCCC(=O)*
How the values were obtained:
[1] = system: Keratinocytes derived from newborn C57BL/6 mice skin; assay: Cytokine secretion in LPS activated keratinocytes, Luminex; format: cell-based; conditions: peptide inhibitors, FIGS. 19 to 23
Text: Resident skin cells and immunological cells (both resident and infiltrating cells) interact in the inflammatory psoriatic process by cell-cell interactions and cytokine secretion. Thus, HO/02/10 was examined for its direct effect on the secretion of pro-inflammatory, chemoattractant and immunological pathway related cytokines form both keratinocytes and immune cells such as macrophages and dendritic cells.
The results of FIGS. 17A and 17B show the effect of HO/02/10 on cytokine secretion in keratinocytes. Keratinocytes were derived from newborn C57BL/6 mice skin. The cells were incubated for 5 days in 24 wells plates. Cells were then treated with DPBS−/−, LPS (100 ng/ml), or HO/02/10 (1 μg/ml)+LPS ([…]). Medium containing secreted cytokines was collected after 48 hr and analyzed using a Luminex system.

[2] = system: TNFα activated keratinocytes; assay: Cytokine secretion in TNFα activated keratinocytes; format: cell-based; conditions: peptide inhibitors, FIGS. 19 to 23
[3] = system: IL-17A activated keratinocytes; assay: Cytokine secretion in IL-17A activated keratinocytes; format: cell-based; conditions: peptide inhibitors, FIGS. 24 to 27
C57BL/6J mouse [4] = assay: Macrophage infiltration in wound, Iba-1 staining; format: in vivo; conditions: daily treatment, five days post-wounding
Procedure: The effect of MPDY-1 on macrophage infiltration was also shown by Iba-1 staining. Iba-1 is a general marker for macrophages. […] As above, a two-cm longitudinal incision was done on the upper back of a C57BL/6J mouse. Following wounding, a sterile pad was sutured to the mouse's skin. Animals were treated daily with MPDY-1 (n=6). Five days post-wounding, when inflammatory phase reaches its peak, the mice were sacrificed, skin tissues were embedded in paraffin and immunohistochemical staining was performed utilizing anti-Iba-1 antibodies.

C57BL/6J mouse [5] = assay: Macrophage activation in wound, MAC-2 staining; format: in vivo; conditions: daily treatment, 5 days; 1, 10 and 100 micrograms per mL
Procedure: The effect of MPDY-1 on macrophage activation was also shown by MAC-2 staining. MAC-2 is a specific marker for activated macrophages. […] A two-cm longitudinal incision was done as described above. Animals were treated daily with DPBS^−/− (Control) or MPDY-1 in the specified concentrations (n=6). After 5 days immunohistochemical staining was performed utilizing anti-MAC-2 antibodies. Bar […]. (*p(control Vs. MPDY-1 10 μg)=0.0028).

Substance | cytokine secretion from LPS activated keratinocytes [1] | cytokine secretion from TNFα activated keratinocytes [2] | cytokine secretion from IL-17A activated keratinocytes [3] | macrophage infiltration (Iba-1 positive cells per field) (C57BL/6J mouse [4]) | activation of macrophages (MAC-2 positive cells per field) (C57BL/6J mouse [5])
H-Phe-Ala-Arg-Lys-Gly-Ala-Leu-Arg-Gln-OH-acetate salt (H-FARKGALRQ-OH; also: acetate salt) [PDY-1] | decrease cytokine secretion | decrease cytokine secretion | decrease cytokine secretion |  | 
Myristoyl-Phe-Ala-Arg-Lys-Gly-Ala-Leu-Arg-Gln-OH (Myristoyl-FARKGALRQ-OH; SMILES CCCCCCCCCCCCCC(=O)N[C@@H](Cc1ccccc1)C(=O)N[C@@H](C)C(=O)N[C@@H](CCCNC(=N)N)C(=O)N[C@@H](CCCCN)C(=O)NCC(=O)N[C@@H](C)C(=O)N[C@@H](CC(C)C)C(=O)N[C@@H](CCCNC(=N)N)C(=O)N[C@@H](CCC(N)=O)C(=O)O) [MPDY-1] | decrease cytokine secretion | decrease cytokine secretion | decrease cytokine secretion | dose dependent effect | significantly inhibited
Myristoyl-Phe-Ala-Arg-Lys-Gly-Ala-Leu-OH (Myristoyl-FARKGAL-OH; SMILES CCCCCCCCCCCCCC(=O)N[C@@H](Cc1ccccc1)C(=O)N[C@@H](C)C(=O)N[C@@H](CCCNC(=N)N)C(=O)N[C@@H](CCCCN)C(=O)NCC(=O)N[C@@H](C)C(=O)N[C@@H](CC(C)C)C(=O)O) [MPDY-1 sh] | decrease cytokine secretion | decrease cytokine secretion | decrease cytokine secretion |  | 

Reference: patent US20130296250A1, “METHOD FOR TREATMENT OF PSORIASIS” (priority 2011, published 2013)
